PubChem BioAssay AID330 (DTP/NCI, 2004)
Where “and” joins values, the source holds several entries; their conditions need not be identical. Equal values may be shown once. Toxic doses and inconclusive results are not listed. How the source made its calls: active means survival T/C of 150% or more; inactive means T/C below 125% in these data.

Tested on: P388 leukemia ip, CD2F1 mice, survival T/C
Assay: NCI In Vivo Anticancer Drug Screen. Data for tumor model P388 Leukemia (intraperitoneal) in CD2F1 (CDF1) mice
Conditions: endpoint: median survival time, higher = longer survival
In short: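 Mice carrying the transplanted tumor received test compound or vehicle. Survival was recorded in each group, and the value is the treated-group measurement divided by that of the vehicle-treated control group.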

[1] = dose: 50.0 mg/kg/injection, schedule: Q01DX009 (ip), vehicle: Klucel (hydroxypropylcellulose) (HPC)
[2] = dose: 100.0 mg/kg/injection, schedule: Q01DX009 (ip), vehicle: Klucel (hydroxypropylcellulose) (HPC)
[3] = dose: 200.0 mg/kg/injection, schedule: Q01DX009 (ip), vehicle: Klucel (hydroxypropylcellulose) (HPC)
[4] = dose: 60.0 mg/kg/injection, schedule: Q01DX005 (ip), vehicle: saline with Tween-80
[5] = dose: 25.0 mg/kg/injection, schedule: Q01DX009 (ip), vehicle: saline with Tween-80
[6] = dose: 50.0 mg/kg/injection, schedule: Q01DX009 (ip), vehicle: saline with Tween-80
[7] = dose: 100.0 mg/kg/injection, schedule: Q01DX009 (ip), vehicle: saline with Tween-80
[8] = dose: 200.0 mg/kg/injection, schedule: Q01DX001 (ip), vehicle: saline with Tween-80
[9] = dose: 200.0 mg/kg/injection, schedule: Q01DX009 (ip), vehicle: saline with Tween-80
[10] = dose: 400.0 mg/kg/injection, schedule: Q01DX001 (ip), vehicle: saline with Tween-80
[11] = dose: 400.0 mg/kg/injection, schedule: Q01DX009 (ip), vehicle: saline with Tween-80
[12] = dose: 100.0 mg/kg/injection, schedule: Q04DX002 (ip), vehicle: Klucel (hydroxypropylcellulose) (HPC)
[13] = dose: 200.0 mg/kg/injection, schedule: Q04DX002 (ip), vehicle: Klucel (hydroxypropylcellulose) (HPC)
[14] = dose: 50.0 mg/kg/injection, schedule: Q01DX005 (ip), vehicle: saline with Tween-80
[15] = dose: 100.0 mg/kg/injection, schedule: Q01DX005 (ip), vehicle: saline with Tween-80
[16] = dose: 120.0 mg/kg/injection, schedule: Q01DX005 (ip), vehicle: saline with Tween-80
[17] = dose: 240.0 mg/kg/injection, schedule: Q01DX005 (ip), vehicle: saline with Tween-80
[18] = dose: 50.0 mg/kg/injection, schedule: Q01DX009 (ip), vehicle: saline
[19] = dose: 100.0 mg/kg/injection, schedule: Q01DX009 (ip), vehicle: saline

Measured: T/C

C/C(=C\COc1cc(O)c2c(c1)C(=O)c1cc(C)cc(O)c1C2=O)CCC1OC1(C)C (stereo unspecified)
inactive: dose: 2.5 mg/kg/injection, schedule: Q01DX005 (ip), vehicle: Klucel (hydroxypropylcellulose) (HPC) 98 % of control | dose: 5.0 mg/kg/injection, schedule: Q01DX005 (ip), vehicle: Klucel (hydroxypropylcellulose) (HPC) 93 % of control | dose: 10.0 mg/kg/injection, schedule: Q01DX005 (ip), vehicle: Klucel (hydroxypropylcellulose) (HPC) 90 % of control | dose: 20.0 mg/kg/injection, schedule: Q01DX005 (ip), vehicle: Klucel (hydroxypropylcellulose) (HPC) 88 % of control

CCN(CC)C(=O)C(F)C(F)(F)C(F)(F)C(F)C(=O)N(CC)CC (stereo unspecified)
inactive: [1] 108 % of control | [2] 99 % of control | [3] 98 % of control

CCOC(=O)N1CCN(C(=S)NNC(C)c2cc3ccccc3cn2)CC1 (stereo unspecified)
inactive: dose: 6.25 mg/kg/injection, schedule: Q01DX005 (ip), vehicle: saline with Tween-80 103 % of control | dose: 12.5 mg/kg/injection, schedule: Q01DX005 (ip), vehicle: saline with Tween-80 113 % of control

COc1cc(Br)c(CC(NC=O)c2ccc3c(c2)OCO3)cc1OC (stereo unspecified)
inactive: dose: 15.0 mg/kg/injection, schedule: Q01DX005 (ip), vehicle: saline with Tween-80 107 % of control | dose: 30.0 mg/kg/injection, schedule: Q01DX005 (ip), vehicle: saline with Tween-80 104 % of control | [4] 89 % of control and 94 % of control

CC(=O)N1C(C(=O)O)Cc2c([nH]c3ccccc23)C1(C)C (stereo unspecified)
inactive: dose: 100.0 mg/kg/injection, schedule: Q01DX001 (ip), vehicle: suspension in saline 108 % of control | dose: 200.0 mg/kg/injection, schedule: Q01DX001 (ip), vehicle: suspension in saline 95 % of control | dose: 400.0 mg/kg/injection, schedule: Q01DX001 (ip), vehicle: suspension in saline 107 % of control

CC1(C)COC(=O)C(C)(C2(C)NC(C)(C)COC2=O)N1 (stereo unspecified)
inactive: [5] 99 % of control | [6] 102 % of control | [7] 101 % of control | [8] 95 % of control | [9] 114 % of control | [10] 97 % of control | [11] 106 % of control | dose: 800.0 mg/kg/injection, schedule: Q01DX001 (ip), vehicle: saline with Tween-80 101 % of control

CCN(CC)CCNC(=O)c1nn(C)c(=S)[nH]c1=O
inactive: [12] 93 % of control | [13] 93 % of control | dose: 400.0 mg/kg/injection, schedule: Q04DX002 (ip), vehicle: Klucel (hydroxypropylcellulose) (HPC) 101 % of control

CC1(C)NC(=O)C2(CC(O)C(O)C(OC(=O)c3ccccc3)C2)O1 (stereo unspecified)
inactive: dose: 25.0 mg/kg/injection, schedule: Q01DX005 (ip), vehicle: saline 102 % of control | dose: 50.0 mg/kg/injection, schedule: Q01DX005 (ip), vehicle: saline 94 % of control | dose: 100.0 mg/kg/injection, schedule: Q01DX005 (ip), vehicle: saline 99 % of control

O=C1Nc2ccccc2/C1=N/N=C/c1ccccc1O
inactive: [1] 91 % of control | [2] 86 % of control

CC(=O)/C(=C\c1ccc(O)cc1)C(=O)CCN(C)C
inactive: [14] 108 % of control | [15] 112 % of control | dose: 200.0 mg/kg/injection, schedule: Q01DX005 (ip), vehicle: saline with Tween-80 112 % of control

c1ccc2c(SCCOCCSc3c4ccccc4nc4ccccc34)c3ccccc3nc2c1
inactive: [4] 98 % of control | [16] 92 % of control | [17] 90 % of control

CCOC(=O)C(Cl)(SC(Cl)(S(=O)(=O)c1ccccc1)S(=O)(=O)c1ccccc1)C(=O)OCC
inactive: [1] 102 % of control | [2] 99 % of control | [3] 97 % of control

C[Si]1(C)CC[Si](C)(C)OS(=O)(=O)O1
inactive: dose: 27.5 mg/kg/injection, schedule: Q01DX005 (ip), vehicle: Klucel (hydroxypropylcellulose) (HPC) 102 % of control | dose: 55.0 mg/kg/injection, schedule: Q01DX005 (ip), vehicle: Klucel (hydroxypropylcellulose) (HPC) 100 % of control

CC(C)NC(=O)OCc1c(COC(=O)NC(C)C)c2n(c1-c1ccc(Cl)c(Cl)c1)CCS2=O (stereo unspecified)
inactive: dose: 25.0 mg/kg/injection, schedule: Q01DX005 (ip), vehicle: saline with Tween-80 100 % of control | [14] 97 % of control | [15] 87 % of control

Cc1ccno1
inactive: [18] 105 % of control | [19] 105 % of control | dose: 200.0 mg/kg/injection, schedule: Q01DX009 (ip), vehicle: saline 105 % of control | dose: 400.0 mg/kg/injection, schedule: Q01DX009 (ip), vehicle: saline 100 % of control

CCS(=O)(=O)OCCCCOS(=O)(=O)CC
inactive: dose: 12.5 mg/kg/injection, schedule: Q01DX009 (ip), vehicle: saline with Tween-80 100 % of control and 97 % of control | [5] 103 % of control and 93 % of control | [6] 115 % of control and 90 % of control | [7] 114 % of control and 90 % of control

Cc1ccc(S(=O)(=O)Nc2cc(C)cc(CCNC=O)c2C)cc1
inactive: [6] 104 % of control | [7] 94 % of control | [9] 99 % of control | [11] 94 % of control

CN1CCCN(C(c2ccccc2)c2ccc(Br)cc2)CC1 (stereo unspecified)
inactive: dose: 25.0 mg/kg/injection, schedule: Q01DX009 (ip), vehicle: saline 97 % of control | [18] 103 % of control | [19] 101 % of control and 91 % of control

CC(C)Cn1c(Cl)c(C(=O)O)c2ccccc21
inactive: [12] 92 % of control | [13] 88 % of control

CCCCNC(=S)N/N=C1/CC(=O)N(c2ccccc2)C1c1ccccc1 (stereo unspecified)
inactive: [4] 89 % of control | [16] 89 % of control

O=C1CCC2(CC1)CCc1ccccc1C2=O
inactive: dose: 100.0 mg/kg/injection, schedule: Q01DX001 (ip), vehicle: saline with Tween-80 103 % of control | [8] 97 % of control | [10] 103 % of control

ON=C(C(Cl)(Cl)Cl)C(Cl)(Cl)Cl
inactive: [4] 100 % of control | [16] 100 % of control | [17] 97 % of control

C=CC1(C)CC(C)=NC1C(=O)c1c[nH]c2ccccc12 (stereo unspecified)
inactive: dose: 12.5 mg/kg/injection, schedule: Q01DX005 (ip), vehicle: DMSO 100 % of control | dose: 25.0 mg/kg/injection, schedule: Q01DX005 (ip), vehicle: DMSO 97 % of control | dose: 50.0 mg/kg/injection, schedule: Q01DX005 (ip), vehicle: DMSO 90 % of control | dose: 100.0 mg/kg/injection, schedule: Q01DX005 (ip), vehicle: DMSO 94 % of control | dose: 200.0 mg/kg/injection, schedule: Q01DX005 (ip), vehicle: DMSO 90 % of control

O=C(CN1CCC(O)(c2ccccc2)CC1)N1CCN(/C=C/c2ccccc2)CC1
inactive: [4] 100 % of control | [16] 104 % of control | [17] 91 % of control

COC(=O)/C=C(\C)NC1CC(OC2C[C@](O)(C(C)=O)Cc3c(O)c4c(c(O)c32)C(=O)c2c(OC)cccc2C4=O)OC(C)C1O (stereo partly specified)
inactive: dose: 6.25 mg/kg/injection, schedule: Q04DX003 (ip), vehicle: saline with Tween-80 105 % of control | dose: 12.5 mg/kg/injection, schedule: Q04DX003 (ip), vehicle: saline with Tween-80 110 % of control and 113 % of control | dose: 50.0 mg/kg/injection, schedule: Q04DX003 (ip), vehicle: saline with Tween-80 96 % of control
